This is an account of results in ChEMBL document CHEMBL1124133, “Synthesis and hypolipidemic activity of 2-substituted isobutyric acid derivatives” (1988).

Common to all, as to type: functional
Holding throughout (settings): route oral

Assay [1] has as its system Rattus norvegicus. Nature of the assay: Hypolipidemic effects of compound on rat plasma high density lipoprotein cholesterol (HDLC) level after peroral administration at 100 mg/kg dose (Experiment 1).
Assay [2] deals with Rattus norvegicus. In words: Hypolipidemic effect on rat plasma Total cholesterol (TC) level by peroral administration at 100 mg/kg dose (Experiment 1).
In assay [3] the test system is Rattus norvegicus. Nature of the assay: Hypolipidemic effect on rat plasma Total cholesterol (TC) level by peroral administration at 100 mg/kg dose (Experiment 2).
The subject of assay [4] is Rattus norvegicus. In words: Hypolipidemic effects in rat fed a high cholesterol diet (HC) by peroral administration at 100 mg/kg dose.(increase in liver weight with respect to body weight mg/g); (Experiment 1).
Assay [5] relates to Rattus norvegicus. Nature of the assay: Hypolipidemic effects in rat fed a high cholesterol diet (HC) by peroral administration at 100 mg/kg dose.(increase in liver weight with respect to body weight mg/g); (Experiment 2).
Assay [6] relates to Rattus norvegicus. Nature of the assay: Hypolipidemic effects in rat fed a normal diet by peroral administration at 100 mg/kg dose.(increase in liver weight with respect to body weight mg/g); (Experiment 1).
Assay [7] concerns Rattus norvegicus. In words: Hypolipidemic effects in rat fed a normal diet by peroral administration at 100 mg/kg dose.(increase in liver weight with respect to body weight mg/g); (Experiment 2).
Assay [8] deals with Rattus norvegicus. In words: Hypolipidemic effects of compound on rat plasma Triglyceride (TG) level after peroral administration at 100 mg/kg dose (Experiment 1).
Assay [9] deals with Rattus norvegicus. Nature of the assay: Hypolipidemic effects of compound on rat plasma Triglyceride (TG) level after peroral administration at 100 mg/kg dose (Experiment 2).
Assay [10] relates to Rattus norvegicus. In words: Hypolipidemic effects of compound on rat plasma high density lipoprotein cholesterol (HDLC) level after peroral administration at 100 mg/kg dose (Experiment 2).

For `CC(C)(CCCCOc1ccc(CCCCc2ccccc2)cc1)C(=O)O`, the HDL-C was determined as 49.4 mg/dL with Rattus norvegicus [1] and 50.9 mg/dL with Rattus norvegicus [10]. For the same molecule, the results for the TC with Rattus norvegicus [2] and in the assay with Rattus norvegicus [3] were 159.5 mg/dL and 132.9 mg/dL, respectively. The Liver weight is reported as 55.8 mg (g of body weight)-1 in the assay on Rattus norvegicus [4], 59.1 mg (g of body weight)-1 in the assay on Rattus norvegicus [5], 41.7 mg (g of body weight)-1 in the assay with Rattus norvegicus [6] and 40.7 mg (g of body weight)-1 in the assay on Rattus norvegicus [7]. Moreover, the TG turned out to be 49 mg/dL in the assay on Rattus norvegicus [8] and 33.8 mg/dL in the assay with Rattus norvegicus [9].
